Publication PMC6273138, “Inhibitory Effects of Aschantin on Cytochrome P450 and Uridine 5′-diphospho-glucuronosyltransferase Enzyme Activities in Human Liver Microsomes” (Molecules, 2016)
Read-outs that look alike come from different tables or passages of the source.

Key:
[1] = biological target: T1, CYP2C8 (Homo sapiens, UniProt P10632); assay: CYP2C8-catalyzed amodiaquine N-de-ethylase inhibition in pooled human liver microsomes; settings: for IC50: CYP2C8 amodiaquine N-de-ethylase, 2.0 µM amodiaquine
T1 sequence (P10632 1-490): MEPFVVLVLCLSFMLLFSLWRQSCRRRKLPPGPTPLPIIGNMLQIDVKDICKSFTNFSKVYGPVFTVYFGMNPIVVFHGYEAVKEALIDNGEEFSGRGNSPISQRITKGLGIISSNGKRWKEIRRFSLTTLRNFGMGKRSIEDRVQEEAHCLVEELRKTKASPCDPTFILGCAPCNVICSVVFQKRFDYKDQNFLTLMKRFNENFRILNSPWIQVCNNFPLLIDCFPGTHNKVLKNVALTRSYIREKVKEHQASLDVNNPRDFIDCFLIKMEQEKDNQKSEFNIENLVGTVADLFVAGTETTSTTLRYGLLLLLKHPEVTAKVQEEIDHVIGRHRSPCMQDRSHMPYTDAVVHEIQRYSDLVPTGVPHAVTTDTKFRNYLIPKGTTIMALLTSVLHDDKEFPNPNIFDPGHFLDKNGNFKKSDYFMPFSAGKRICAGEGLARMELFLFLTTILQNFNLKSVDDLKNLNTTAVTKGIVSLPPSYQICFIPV
Method: (§1) The degrees of inhibition (the IC50 values) of aschantin toward CYP1A2, CYP2A6, CYP2C8, CYP2C9, CYP2C19, CYP2D6, and CYP3A4 were evaluated using pooled human liver microsomes employing a cocktail of CYP substrates and liquid chromatography-tandem mass spectrometry (LC-MS/MS). […] After 3 min pre-incubation at 37 °C, the reactions were initiated by addition of NADPH and incubation proceeded for 15 min at 37 °C in a shaking water bath. The reaction was stopped by placing the tubes on ice and adding 100 µL amounts of ice-cold methanol containing internal standards (^13C2,^15N-acetaminophen for acetaminophen and N-desethylamodiaquine; d9-1′-hydroxybufuralol for 4′-hydroxydiclofenac; and 7-hydroxycoumarin, 4′-hydroxy-mephenytoin, 1′-hydroxybufuralol, and 1′-hydroxymidazolam). Then the incubation mixtures were centrifuged at 13,000× g for 4 min at 4 °C. All assays were performed in triplicate and the average values were used in calculations.
(§2) To this end, we employed a tandem mass spectrometer (TSQ Quantum Access, Thermo Scientific, San Jose, CA, USA) coupled to a Nanospace SI-2 LC system (Shiseido, Tokyo, Japan). The column and autosampler temperatures were 50 °C and 6 °C, respectively. The mass spectrometer was equipped with an electrospray ionization (ESI) source and was operated in positive ion mode. The ESI source settings for metabolite ionization were as follows: capillary voltage, 4200 V; vaporizer temperature, 350 °C; capillary temperature 330 °C; sheath gas pressure, 35 psi; and auxiliary gas pressure, 15 psi. […] Analytical data were processed using Xcalibur® software (Thermo Scientific).
(§3) The apparent kinetic inhibitory potentials (the Ki values) were estimated from the fitted curves using Enzyme Kinetics version 1.1 (Systat Software Inc.).

[2] = biological target: T2, UGT2B7 (Homo sapiens, UniProt P16662); assay: UGT2B7-catalyzed naloxone 3-β-D-glucuronidation inhibition in pooled human liver microsomes; assay type: in vitro ADME
T2 construct: using pooled human liver microsomes incubated with the cocktail of UGT substrates; tissue Corning Life Sciences 452161; host or cells: pooled human liver microsomes
T2 sequence (P16662 24-529): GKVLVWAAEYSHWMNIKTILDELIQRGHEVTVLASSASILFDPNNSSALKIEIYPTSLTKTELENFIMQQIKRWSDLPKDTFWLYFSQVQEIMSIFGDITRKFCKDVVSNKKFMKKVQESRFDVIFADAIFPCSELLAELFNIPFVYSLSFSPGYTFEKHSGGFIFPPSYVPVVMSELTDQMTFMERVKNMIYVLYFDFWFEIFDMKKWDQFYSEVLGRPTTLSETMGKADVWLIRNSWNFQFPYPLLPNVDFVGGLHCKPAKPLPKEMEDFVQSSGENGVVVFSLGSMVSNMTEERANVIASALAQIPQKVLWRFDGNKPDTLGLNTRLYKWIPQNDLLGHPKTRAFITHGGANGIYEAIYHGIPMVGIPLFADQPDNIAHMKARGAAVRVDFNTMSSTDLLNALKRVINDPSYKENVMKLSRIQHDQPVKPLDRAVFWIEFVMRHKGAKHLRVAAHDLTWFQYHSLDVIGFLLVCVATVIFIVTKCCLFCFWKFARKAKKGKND
Method: The extents of aschantin on UGT1A1, UGT1A3, UGT1A4, UGT1A6, UGT1A9, and UGT2B7 were evaluated by LC-MS/MS, using pooled human liver microsomes incubated with the cocktail of UGT substrates. The method was modified from that of Joo et al..
The metabolites formed from the six UGT cocktail substrates were simultaneously measured using the LC-MS/MS method. […] The mass spectrometer was equipped with an ESI source and was operated in both positive and negative ion modes. […] Each metabolite was quantified via SRM in the negative ion (chenodeoxycholic acid 24-acyl-β-glucuronide, 567.2 > 391.0; mycophenolic acid glucuronide, 495.2 > 318.9; propofol glucuronide, 353.3 > 177.1) and positive ion (SN-38 glucuronide, 569.0 > 393.0; trifluoperazine glucuronide, 584.2 > 408.1; N-acetylserotonin-β-D-glucuronide, 395.2 > 219.0; naloxone 3-β-D-glucuronide, 504.0 > 310.0; meloxicam, 352.0 > 115.1) modes.

[3] = biological target: T1, CYP2C8; assay: Mechanism-based (time- and concentration-dependent) inactivation of CYP2C8 in human liver microsomes; assay type: in vitro ADME; settings: CYP2C8-mediated amodiaquine N-de-ethylation
Method: The microsomes (1 mg/mL) were pre-incubated with various concentrations of aschantin in 50 mM potassium phosphate buffer (pH 7.4) in the presence of NADPH. Aliquots (10 µL) of the incubated mixtures were withdrawn at 5, 10, 15, and 20 min after incubation commenced and added to other tubes containing the CYP substrates (2 µM amodiaquine for CYP2C8, 10 µM diclofenac for CYP2C9, 100 µM [S]-mephenytoin for CYP2C19, or 2 µM midazolam for CYP3A4), 1 mM NADPH, 50 mM potassium phosphate buffer (pH 7.4), and 10 mM MgCl2, in 90 µL reaction mixtures. […] Aliquots (5 µL) of the diluted supernatants were analyzed by LC-MS/MS, as described above.

[4] = biological target: T3, CYP2B6 (Homo sapiens, UniProt P20813); assay: CYP2B6-catalyzed bupropion hydroxylase inhibition in pooled human liver microsomes; assay type: in vitro ADME; settings: for IC50: CYP2B6 bupropion hydroxylase, 50 µM bupropion
T3 construct: tissue Corning Life Sciences 452161; host or cells: pooled human liver microsomes
T3 sequence (P20813 1-491): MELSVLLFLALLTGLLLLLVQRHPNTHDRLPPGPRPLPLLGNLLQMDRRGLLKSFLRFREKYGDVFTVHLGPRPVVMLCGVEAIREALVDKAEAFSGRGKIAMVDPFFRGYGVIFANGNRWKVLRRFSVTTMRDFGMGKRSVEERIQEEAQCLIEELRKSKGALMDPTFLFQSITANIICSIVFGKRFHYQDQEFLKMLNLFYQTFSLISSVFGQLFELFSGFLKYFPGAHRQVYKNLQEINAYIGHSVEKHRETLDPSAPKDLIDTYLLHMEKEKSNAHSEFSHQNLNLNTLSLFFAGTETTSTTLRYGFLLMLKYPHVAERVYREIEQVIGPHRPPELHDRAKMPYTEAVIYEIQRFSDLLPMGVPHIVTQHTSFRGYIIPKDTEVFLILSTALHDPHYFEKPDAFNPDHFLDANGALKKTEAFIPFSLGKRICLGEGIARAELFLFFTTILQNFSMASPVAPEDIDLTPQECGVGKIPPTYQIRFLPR
Method: The effects of aschantin on CYP2B6-catalyzed bupropion hydroxylase activity were evaluated using LC-MS/MS with pooled human liver microsomes. […] The reaction was initiated by adding bupropion. Hydroxybupropion levels were determined using the LC-MS/MS method described above; the SRM parameters were 256.1 > 238.0 for hydroxybupropion and 287.2 > 187.0 for d9-1′-hydroxybufuralol.

[5] = biological target: CYP2C19 (Homo sapiens, UniProt P33261); assay: CYP2C19-catalyzed [S]-mephenytoin 4′-hydroxylase inhibition in pooled human liver microsomes; settings: for IC50: CYP2C19 (S)-mephenytoin 4′-hydroxylase, 100 µM [S]-mephenytoin
CYP2C19, sequence (P33261 whole entry): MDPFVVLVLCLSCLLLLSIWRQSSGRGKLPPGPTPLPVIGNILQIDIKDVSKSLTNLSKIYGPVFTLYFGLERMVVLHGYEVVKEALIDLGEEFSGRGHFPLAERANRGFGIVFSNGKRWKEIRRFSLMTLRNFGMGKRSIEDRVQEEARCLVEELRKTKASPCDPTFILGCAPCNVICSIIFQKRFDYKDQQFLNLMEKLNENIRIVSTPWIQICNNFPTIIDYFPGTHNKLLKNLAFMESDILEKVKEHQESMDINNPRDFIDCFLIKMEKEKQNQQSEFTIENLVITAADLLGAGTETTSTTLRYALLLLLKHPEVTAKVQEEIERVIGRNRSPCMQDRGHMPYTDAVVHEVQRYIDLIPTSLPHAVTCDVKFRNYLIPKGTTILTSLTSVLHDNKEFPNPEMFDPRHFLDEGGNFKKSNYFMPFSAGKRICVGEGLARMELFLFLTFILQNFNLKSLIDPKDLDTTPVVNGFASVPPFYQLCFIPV
Method: as §1, §2, §3

[6] = IC50 No Pre-incubation, pooled human liver microsomes, no pre-incubation
[7] = IC50 With Pre-incubation, 30 min pre-incubation with microsomes and NADPH

IC50 [1, 6]: 27.8 µM | IC50 [1, 7]: 5.3 µM | IC50 shift at 0.5 h ([1]; human, pooled human liver microsomes, pH 7.4, probe amodiaquine (2.0 µM), N-de-ethylation): > 2.5 | IC50 ([2]; UGT2B7-catalyzed naloxone 3-β-D-glucuronidation, 1 µM naloxone, pooled human liver microsomes): > 200 µM | inhibition of UGT2B7-catalyzed naloxone 3-β-D-glucuronidation ([2]; aschantin at 200 µM, human liver microsomes): not inhibited | Ki ([3]; read-out: Ki (apparent)): 10.2 µM | kinact ([3]; pH 7.4, probe amodiaquine (2 µM)): 0.000933 s⁻¹ | IC50 ([4]; 30 min pre-incubation with microsomes and NADPH, read-out: IC50 With Pre-incubation): 87.9 µM | IC50 ([4]; pooled human liver microsomes, no pre-incubation, read-out: IC50 No Pre-incubation): > 100 µM | inhibition of CYP2B6-mediated bupropion hydroxylation ([4]; aschantin at 100 µM, human liver microsomes): negligibly inhibited | IC50 [5, 6]: 22.7 µM | IC50 [5, 7]: 6.1 µM | IC50 shift at 0.5 h ([5]; human, pooled human liver microsomes, pH 7.4, probe [S]-mephenytoin (100 µM), 4′-hydroxylation): > 2.5
SMILES: COc1cc([C@H]2OC[C@H]3[C@@H]2CO[C@@H]3c2ccc3c(c2)OCO3)cc(OC)c1OC [Aschantin]
